Experimental data from patent US5532265A, “Treatment of central nervous system inflammatory disease with matrix metalloprotease inhibitors” (The Board of Trustees of the Leland Stanford Junior …, priority 1994, dated 1996).

Columns and labels:
gelatinase B = conditions: cited from earlier work
EAE in SJL/J mice [1] = experiment: Blood-brain barrier permeability (Evans blue); format: in vivo
Description: Mice were injected intravenously with 1% (wt/vol) Evans blue (Fisher Scientific Co., Fair Lawn, N.J.) in PBS at a dosage of 4 μl/g body weight. After 1 h the animals were euthanized by CO2 inhalation and perfused with PBS via the left ventricle. Brain and spinal cord were dissected and cut longitudinally. Half of the CNS was used for histopathological evaluation. The other half was weighed and tissue samples were then extracted for 3 d in formamide (5 μl/mg tissue) and the extracts centrifuged for 5 min at 500 g. Evans blue concentration in the extracts was determined by measuring the absorbance at 650 nm. The blood-brain barrier permeability index was calculated by dividing the value for each sample by the corresponding (brain or spinal cord) mean value of four normal noninduced animals.

[2] = In vivo inhibitor kinetics (GM 6001 concentration in CSF); design: species or system mice; conditions: for concentration at 3 h: for at least 3 h
Description: In vivo inhibitor kinetics. Normal noninduced animals or animals with clinical signs of EAE for 2 d were given a single intraperitoneal injection of 4 mg GM 6001 and euthanized by CO2 inhalation after various time intervals. CSF was taken by suboccipital puncture. Pooled CSF from five animals per time point was frozen immediately at -70° C. GM 6001 concentrations were determined by reversed-phase HPLC by Bay Bioanalytical Laboratories, Richmond, Calif. was diluted into 20% acetonitrile in water and chromatographed on a C-18 reversed-phase column with fluorescence detection. Linearity was determined by spiking blank CSF with increasing amounts of GM 6001. The amount of GM 6001 in CSF samples was calculated based on recovery of GM 6001 and the internal standard in spiked samples. The lower limit for quantification of GM 6001 in the CSF samples was 60 ng/rnl.

EAE in SJL/J mice [3] = experiment: Histopathology of brain and spinal cord (inflammation, demyelination); format: in vivo; conditions: for Demyelination Brain + SC / Inflammation Brain / Inflammation Spinal Cord: 1 × 1.33 mg/d i.p.; for Demyelination Brain + SC: demyelination score; for Inflammation Brain / Inflammation Spinal Cord: total inflammatory score
Description: Sections were stained with hematoxylin and eosin, Kluver-Barrera and Giemsa stain. Histopathology was assessed as follows. Individual inflammatory lesions were scored as 1=perivascular inflammatory cuff≤three cells thick, 2=>three cells thick. 3=parenchymal infiltrate. The total inflammatory score was then calculated by adding all the scores for individual lesions from all the sections for a given sample. The demyelination score was calculated the same way as inflammatory score, with 1=demyelinated rim around infiltrate, 2=demyelination extending into noninfiltrated tissue.

[4] = system: gelatinase A and B in the CSF from animals with EAE; experiment: In vitro inhibition of gelatinase activity in CSF (SDS/PAGE zymography); format: biochemical, mice
Description: In vitro inhibition of gelatinase activity. Gelatinase activity in a pooled CSF sample from animals with clinical signs of EAE (grade 2-3 for 4-5 d) was determined by SDS/PAGE zymography. CSF was applied without prior denaturation to a single-well 7.5% (wt/vol) polyacrylamide gel containing 0.1% (wt/vol) SDS to which 0.1% (wt/vol) tissue culture grade gelatin (Sigma Chemical Co., St. Louis, Mo.) was added and copolymerized. […] The gel (7 cm×10 cm×0.75 mm) was run for approximately 2 h at 20 mA. After electrophoresis the gel was washed (washing buffer: 50 mM Tris-HCL, 10 mM CaCl2, 0.02% (wt/vol) NaN3, 2.5% (vol/vol) Triton X-100, pH 7.5) to remove the SDS and sliced into strips. The resulting strips were incubated separately at 37° C. during 24 h (same buffer as for the washing, containing only 1% [vol/vol] Triton X-100) for development of the enzyme activity, stained with Coomassie brilliant blue R-250 and destained in methanol/acetic acid. Gelatinase activity was detected as unstained bands on a blue background. To assess the effect of protease inhibitors on the gelatinase activity present in the CSF, metalloprotease inhibitors (dissolved in DMSO) were added to the incubation buffer. GM 6001 was used at final concentrations from 0.1 to 33 μM; 1,10-phenanthroline (Sigma Chemical Co.) was used as a positive control at 2.5 mM, and the noninhibitor lane was incubated in 0.5% (vol/vol) DMSO.

EAE in SJL/J mice [5] = experiment: Clinical scoring of EAE; format: in vivo; design: key to Change in average cumulative score During treatment / Change in average cumulative score After treatment: change in cumulative EAE grade; 0 = no signs, 5 = death
Description: EAE induction, Female SJL/J mice (Jackson Laboratory, Bar Harbor, Me.) were used at 5-7 week of age. […] PLP peptide 139-151 was prepared by continuous flow solid phase synthesis according to the sequence (SEQ ID NO 1 ) HCLGKWLGHPDKF by the Protein and Nucleic Acid Facility, Beckman Center, Stanford, Calif. Peptide purity was examined by HPLC analysis and peptide identity was confirmed by amino-acid composition analysis.
EAE was scored clinically as follows: no neurological signs=grade 0, weak tail=grade 1, wobbly walk or limb paresis=grade 2, limb paralysis=grade 3, inability to move=grade 4, death=grade 5. Easy access to food and water was provided and animals with grade 3 or 4 received daily parenteral fluid.
[…] The same volume of vehicle was used as a control treatment. Animals were treated daily either from the day of disease induction for 20 d or from the onset of clinical signs for 10 d (randomized for the different treatment groups).

[6] = animals with EAE, single intraperitoneal dose of 4 mg
[7] = 3 days of treatment from onset of clinical signs
[8] = 10 days of treatment from onset of clinical signs
[9] = Experiment 1, from disease induction for 20 d, 2X/d 2.00 mg i.p.
[10] = Experiment 1, from onset of clinical signs for 10 d, 2X/d 2.00 mg i.p.
[11] = Experiment 2, from disease induction for 20 d, 1X/d 0.13 mg i.p.
[12] = Experiment 2, from disease induction for 20 d, 1X/d 0.40 mg i.p.
[13] = Experiment 2, from disease induction for 20 d, 1X/d 1.33 mg i.p.
[14] = Experiment 2, from disease induction for 20 d, 1X/d 4.00 mg i.p.
[15] = Experiment 2, from onset of clinical signs for 10 d, 1X/d 0.13 mg i.p.
[16] = Experiment 2, from onset of clinical signs for 10 d, 1X/d 0.40 mg i.p.
[17] = Experiment 2, from onset of clinical signs for 10 d, 1X/d 1.33 mg i.p.
[18] = Experiment 2, from onset of clinical signs for 10 d, 1X/d 4.00 mg i.p.

## CNC(=O)[C@H](Cc1c[nH]c2ccccc12)NC(=O)[C@@H](CC(=O)NO)CC(C)C [GM 6001, N-[2(R)-2-(hydroxamidocarbonylmethyl)-4-methylpentanoyl]-L-tryptophan methylamide]
Gelatinase B
  Ki: 0.2 nM
EAE in SJL/J mice [1]; 3 days of treatment from onset of clinical signs, 1 × 1.33 mg/d i.p.
  Blood Brain Barrier Index Spinal Cord: 0.7 ± 0.12
EAE in SJL/J mice [1]; 3 days of treatment from onset of clinical signs, 1 × 1.33 mg/d i.p., ratio of permeability for Evan's blue
  Blood Brain Barrier Index Brain: 1.1 ± 0.16
EAE in SJL/J mice [1]; 10 days of treatment from onset of clinical signs, 1 × 1.33 mg/d i.p.
  Blood Brain Barrier Index Spinal Cord: 1.1 ± 0.11
EAE in SJL/J mice [1]; after 10 d of disease, 1×1.33 mg/d from onset, vehicle significantly elevated, P<0.05
  blood-brain barrier index: normal
[2]; [6]
  duration of detectable levels in the CSF: at least 4 h
  time after injection at which detectable levels in the CSF start: 30 min
[2]; mouse, csf, ip, animals with EAE, single i.p. dose of 4 mg, after 8 hours
  concentration at 8 h: 0.1 µg/mL
[2]; mouse, csf, ip, animals with EAE, single i.p. dose of 4 mg, after 16 hours
  concentration at 16 h: < 0.06 µg/mL
[2]; mouse, csf, ip, animals with EAE, single i.p. dose of 4 mg
  concentration at 3 h: 0.1 to 0.2 µg/mL
[2]; mouse, csf, ip, animals with EAE, single i.p. dose of 4 mg, converted from ng/ml
  concentration at 3 h: 0.25 to 0.5 µM
[2]; normal noninduced animals, single i.p. dose of 4 mg
  concentration in the CSF: never rose above the detection limit
EAE in SJL/J mice [3]; [7]
  Demyelination Brain + SC: 3.7 ± 0.88
  Inflammation Brain: 31.7 ± 5.17
  Inflammation Spinal Cord: 14.7 ± 1.67
EAE in SJL/J mice [3]; [8]
  Demyelination Brain + SC: 2.3 ± 0.63
  Inflammation Brain: 21.0 ± 3.14
  Inflammation Spinal Cord: 15.0 ± 3.24
EAE in SJL/J mice [3]; after 3 and 10 d of treatment, 1×1.33 mg/d from onset, differences not statistically significant
  inflammatory and demyelination scores compared with vehicle: lower after 3 and 10 d of treatment with GM 6001 in all but one group
[4]; CSF from animals with EAE
  inhibition of gelatinase A compared with gelatinase B in CSF: equally well inhibited
[4]; GM 6001 at 1 μM to 33 μM, pooled CSF from animals with EAE, zymography
  inhibition of gelatinase activity in CSF: completely inhibited all gelatinase activity
[4]; GM 6001 at 0.1 and 0.33 μM, pooled CSF from animals with EAE, zymography
  inhibition of gelatinase activity in CSF: partial inhibition
EAE in SJL/J mice [5]; 0.13 mg/d once daily, P<0.05 (4 and 1.33 mg/d P<0.005)
  efficacy at low dose when given from disease induction: still effective
EAE in SJL/J mice [5]; 4 mg/d once daily i.p., both treatment schedules
  efficacy of single daily dose compared with 2×2 mg/d: comparable efficacy
EAE in SJL/J mice [5]; [9]
  Change in average cumulative score After treatment: 9.9 ± 2.17
  Change in average cumulative score During treatment: 7.0 ± 2.57
EAE in SJL/J mice [5]; [10]
  Change in average cumulative score After treatment: -7.2 ± 2.69
  Change in average cumulative score During treatment: -6.5 ± 2.08
EAE in SJL/J mice [5]; [11]
  Change in average cumulative score After treatment: 18.0 ± 9.82
  Change in average cumulative score During treatment: 7.7 ± 3.09
EAE in SJL/J mice [5]; [12]
  Change in average cumulative score After treatment: 23.9 ± 4.96
  Change in average cumulative score During treatment: 11.3 ± 0.94
EAE in SJL/J mice [5]; [13]
  Change in average cumulative score After treatment: 12.0 ± 3.83
  Change in average cumulative score During treatment: 3.4 ± 1.77
EAE in SJL/J mice [5]; [14]
  Change in average cumulative score After treatment: 22.2 ± 4.61
  Change in average cumulative score During treatment: 2.4 ± 1.16
EAE in SJL/J mice [5]; [15]
  Change in average cumulative score After treatment: -10.6 ± 5.67
  Change in average cumulative score During treatment: 2.0 ± 1.92
EAE in SJL/J mice [5]; [16]
  Change in average cumulative score After treatment: -7.9 ± 4.44
  Change in average cumulative score During treatment: -0.3 ± 2.03
EAE in SJL/J mice [5]; [17]
  Change in average cumulative score After treatment: -15.0 ± 5.79
  Change in average cumulative score During treatment: -4.1 ± 1.81
EAE in SJL/J mice [5]; [18]
  Change in average cumulative score After treatment: -7.1 ± 7.86
  Change in average cumulative score During treatment: -4.3 ± 2.69
EAE in SJL/J mice [5]; FIG. 1, from disease induction for 20 d, 2×2 mg/d i.p., 10 animals per group
  clinical severity of the disease compared with the vehicle-treated group: significantly reduced
EAE in SJL/J mice [5]; FIG. 3, 1×4 mg/d for 10 days from onset of clinical relapse, nine animals
  disease score, treatment of clinical relapse: statistically significant difference
EAE in SJL/J mice [5]; experiment 2
  recovery from the drop in body weight associated with the onset of EAE: recovered faster
EAE in SJL/J mice [5]; from onset of clinical signs for 10 d, 2×2 mg/d, P<0.005 vs vehicle up to two days after treatment
  clinical scores after start of treatment: decreased the day after the start of treatment
EAE in SJL/J mice [5]; from onset of clinical signs for 10 d, 2×2 mg/d, vehicle 3 out of 10
  animals returned to score 0 (clinically normal) within 12 d following the onset of clinical signs: 8 out of 10
EAE in SJL/J mice [5]; of the 8 recovered animals, 2×2 mg/d from onset for 10 d, vehicle all 3
  animals that returned to score 0 and had a clinical disease relapse during the follow-up period: 7 animals
EAE in SJL/J mice [5]; once daily 4, 1.33, 0.40, 0.13 mg/d, P<0.05, FIG. 2
  reduction of disease severity when treated from disease onset: only 4 and 1.33 mg/d were significantly effective

## c1cnc2c(c1)ccc1cccnc12 [phenanthroline, 1,10-phenanthroline, reference compound]
[4]; phenanthroline 2.5 mM, positive control
  inhibition of gelatinase activity in CSF: served as an inhibitory control
